Where a name gives a salt, the structure may show the parent alone. Read-outs that look alike come from different tables or passages of the source.
What was measured:
factor XIa = factor XIa (Homo sapiens, UniProt P03951); conditions: value taken from WO 2014/022767, Table 1, page 89; cited from earlier work
[1] = rcm bond, 12-membered ring
[2] = from C=CC[C@H](NC(=O)OC(C)(C)C)c1cc(-c2c(NC(=O)C(C=C)C(C)C)cnn2C)ccn1; rcm bond; 12-membered ring; Grubbs II (40 mol%); DCE; 36.7 mM; 120.0 °C
[3] = target: T1, purified human Factor XIa (Homo sapiens, UniProt P03951); assay: Factor XIa inhibition assay, chromogenic substrate S-2366 (Ki); type: biochemical
T1 construct: purchased Haematologic Technologies
Outline: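 Purified human FXIa (25-200 pM final) with S-2366 (0.0002-0.001 M) in 50 mM HEPES pH 7.4, 145 mM NaCl, 5 mM KCl, 0.1% PEG 8000. Velocities of absorbance change measured over 20-180 min with inhibitor present; Ki calculated for competitive inhibition from rates or IC50 via Ki=IC50/(1+S/Km).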

[4] = target: T2, purified human plasma kallikrein (Homo sapiens, UniProt P03952); assay: Plasma kallikrein inhibition assay, chromogenic substrate S-2302 (Ki); type: biochemical
T2 construct: Plasma prekallikrein is a zymogen of a trypsin-like serine protease; purchased Enzyme Research Laboratories
Outline: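 Purified human plasma kallikrein (200 pM final) with chromogenic substrate S-2302 at 0.00008-0.0004 M in 0.1 M sodium phosphate pH 7.5, 0.1-0.2 M NaCl, 0.5% PEG 8000. Velocities measured over 20-180 min with and without inhibitor; Ki derived assuming competitive inhibition, e.g. Ki=IC50/(1+S/Km).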

T2 sequence (P03952 391-638 limits assumed): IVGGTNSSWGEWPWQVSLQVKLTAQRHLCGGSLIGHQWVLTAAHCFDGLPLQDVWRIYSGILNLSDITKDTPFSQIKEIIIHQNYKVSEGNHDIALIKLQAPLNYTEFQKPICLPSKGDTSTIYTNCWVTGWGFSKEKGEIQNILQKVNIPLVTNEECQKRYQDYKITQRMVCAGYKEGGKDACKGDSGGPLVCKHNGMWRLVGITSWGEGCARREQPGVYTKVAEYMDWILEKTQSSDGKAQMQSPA
T2 sequence (P03952 20-390 partner limits assumed): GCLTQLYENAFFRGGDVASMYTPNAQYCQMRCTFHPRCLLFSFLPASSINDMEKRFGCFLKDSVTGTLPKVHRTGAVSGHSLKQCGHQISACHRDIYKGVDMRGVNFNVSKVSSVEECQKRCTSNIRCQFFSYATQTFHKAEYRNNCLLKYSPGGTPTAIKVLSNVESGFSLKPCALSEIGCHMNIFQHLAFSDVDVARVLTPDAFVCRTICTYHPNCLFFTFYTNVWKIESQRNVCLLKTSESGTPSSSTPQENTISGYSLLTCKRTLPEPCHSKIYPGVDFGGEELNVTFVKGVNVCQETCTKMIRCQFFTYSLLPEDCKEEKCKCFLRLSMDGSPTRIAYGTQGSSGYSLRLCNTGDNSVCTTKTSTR
T1 sequence (P03951 388-625 limits assumed): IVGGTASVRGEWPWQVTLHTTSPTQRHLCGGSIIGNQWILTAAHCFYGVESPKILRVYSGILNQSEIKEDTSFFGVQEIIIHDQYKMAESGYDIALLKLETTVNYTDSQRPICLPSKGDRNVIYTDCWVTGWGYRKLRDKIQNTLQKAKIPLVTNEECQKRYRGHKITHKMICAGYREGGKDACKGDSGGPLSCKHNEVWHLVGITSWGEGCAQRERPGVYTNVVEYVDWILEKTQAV
T1 sequence (P03951 19-387 partner limits assumed): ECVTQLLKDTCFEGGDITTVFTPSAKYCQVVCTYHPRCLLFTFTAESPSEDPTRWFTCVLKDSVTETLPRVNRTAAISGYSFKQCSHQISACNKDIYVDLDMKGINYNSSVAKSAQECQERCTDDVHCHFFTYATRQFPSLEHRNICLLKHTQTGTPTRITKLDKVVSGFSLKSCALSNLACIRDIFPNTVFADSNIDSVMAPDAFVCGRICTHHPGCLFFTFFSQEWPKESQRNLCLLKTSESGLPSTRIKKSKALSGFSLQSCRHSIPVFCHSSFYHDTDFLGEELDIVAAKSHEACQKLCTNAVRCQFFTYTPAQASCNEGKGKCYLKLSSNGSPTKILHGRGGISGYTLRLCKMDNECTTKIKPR
factor XIa, sequence (P03951 388-625 limits assumed): as the sequence (P03951 388-625 limits assumed) above
factor XIa, sequence (P03951 19-387 partner limits assumed): as the sequence (P03951 19-387 partner limits assumed) above

SMILES | Ki [3] [nM] | Ki [4] [nM] | other results
C[C@@H]1CCC[C@H](N2CCC(c3c(F)ccc(Cl)c3F)=CC2=O)c2cc(ccn2)-c2cn[nH]c2NC1=O [Example 221] |  |  | Ki (factor XIa): 1320 nM
C[C@@H]1/C=C/C[C@H](NC(=O)OC(C)(C)C)c2cc(ccn2)-c2c(cnn2C)NC1=O |  |  | ring closure, isolated yield ([1]; from C=CC[C@H](NC(=O)OC(C)(C)C)c1cc(-c2c(NC(=O)[C@H](C)C=C)cnn2C)ccn1, Grubbs II (40 mol%), DCE, 78.3 mM, 120.0 °C): 20%
CC(C)[C@@H]1/C=C/C[C@H](NC(=O)OC(C)(C)C)c2cc(ccn2)-c2c(cnn2C)NC1=O |  |  | ring closure, yield after HPLC [2]: 16.8%
C[C@@H]1/C=C/C[C@H](NC(=O)OC(C)(C)C)c2cc(ccn2)-c2c(cnn2C(F)F)NC1=O |  |  | ring closure, isolated yield ([1]; from C=CC[C@H](NC(=O)OC(C)(C)C)c1cc(-c2c(NC(=O)[C@H](C)C=C)cnn2C(F)F)ccn1, Grubbs II (25 mol%), EtOAc, 5.0 mM): 76%
C[C@@H]1/C=C/C[C@H](NC(=O)OCc2ccccc2)c2cc(ccn2)-c2c(cnn2CCOC(C)(C)C)NC1=O |  |  | ring closure, isolated yield ([1]; from C=CC[C@H](NC(=O)OCc1ccccc1)c1cc(-c2c(NC(=O)[C@H](C)C=C)cnn2CCOC(C)(C)C)ccn1, Grubbs II (40 mol%), DCE, 35.6 mM, 120.0 °C, 0.5 h): 38%
C[C@@H]1/C=C/C[C@H](NC(=O)OC(C)(C)C)c2cccc(n2)-c2c(cnn2C)NC1=O |  |  | ring closure, isolated yield ([1]; from C=CC[C@H](NC(=O)OC(C)(C)C)c1cccc(-c2c(NC(=O)[C@H](C)C=C)cnn2C)n1, Grubbs II (40 mol%), EtOAc, 13.2 mM, 80.0 °C): 66%
C[C@@H]1CCC[C@H](n2ccc(-c3c(OC(F)F)ccc(Cl)c3F)cc2=O)c2cc(ccn2)-c2c(cnn2C)NC1=O [Example 27, (9R,13S)-13-{4-[3-chloro-6-(difluoromethoxy)-2-fluorophenyl]-2-oxo-1,2-dihydropyridin-1-yl}-3,9-dimethyl-3,4,7,15-tetraazatricyclo[12.3.1.0^2,6]octadeca-1(18),2(6),4,14,16-pentaen-8-one trifluoroacetate] | 4.9 | 40 | 
C[C@@H]1CCC[C@H](N2CCC(c3cc(Cl)ccc3-n3cc(Cl)nn3)=CC2=O)c2cc(ccn2)-c2c(cnn2C)NC1=O [Example 3, (9R,13S)-13-{4-[5-chloro-2-(4-chloro-1H-1,2,3-triazol-1-yl)phenyl]-6-oxo-1,2,3,6-tetrahydropyridin-1-yl}-3,9-dimethyl-3,4,7,15-tetraazatricyclo [12.3.1.0^2,6]octadeca-1(18),2(6),4,14,16-pentaen-8-one] | 0.12 | 6 | 
[2H]C([2H])([2H])n1ncc2c1-c1ccnc(c1)[C@@H](n1ncc(-c3cc(Cl)ccc3-n3cc(C(F)(F)F)nn3)cc1=O)CCC[C@@H](C)C(=O)N2 [Example 63, (9R,13S)-13-(4-{5-Chloro-2-[4-(trifluoromethyl)-1H-1,2,3-triazol-1-yl]phenyl}-6-oxo-1,6-dihydropyridazin-1-yl)-3-(^2H3)methyl-9-methyl-3,4,7,15-tetraazatricyclo[12.3.1.0^2,6]octadeca-1(18),2(6),4,14,16-pentaen-8-one trifluoroacetate] | 0.52 | 77 | 
C[C@@H]1CCC[C@H](n2ccc(-c3cc(Cl)ccc3C#N)cc2=O)c2cc(ccn2)-c2c(cnn2C(F)F)NC1=O [Example 4, 4-chloro-2-{1-[(9R,13S)-3-(difluoromethyl)-9-methyl-8-oxo-3,4,7,15-tetraazatricyclo[12.3.1.0^2,6]octadeca-1(18),2(6),4,14,16-pentaen-13-yl]-2-oxo-1,2-dihydropyridin-4-yl}benzonitrile] | 3.2 | 19 | 
CC(C)[C@H]1/C=C/C[C@H](NC(=O)OC(C)(C)C)c2cc(ccn2)-c2c(cnn2C)NC1=O |  |  | ring closure, yield after HPLC [2]: 16.8%
C[C@@H]1CCC[C@H](N2CCC(c3c(Cl)ccc(Cl)c3F)=CC2=O)c2cc(ccn2)-c2c(cnn2C)NC1=O [Example 24, (9R,13S)-13-[4-(3,6-dichloro-2-fluorophenyl)-6-oxo-1,2,3,6-tetrahydropyridin-1-yl]-3,9-dimethyl-3,4,7,15-tetraazatricyclo[12.3.1.0^2,6]octadeca-1(18),2(6),4,14,16-pentaen-8-one] | 2.7 | 6 | 
C[C@H]1C(=O)Nc2cnn(C)c2-c2ccnc(c2)[C@@H](N2CCC(c3c(C(F)(F)F)ccc(Cl)c3F)=CC2=O)CCC1F (stereo partly drawn) [Example 20, (9S,13S)-13-{4-[3-chloro-2-fluoro-6-(trifluoromethyl)phenyl]-6-oxo-1,2,3,6-tetrahydropyridin-1-yl}-10-fluoro-3,9-dimethyl-3,4,7,15-tetraazatricyclo[12.3.1.0^2,6]octadeca-1(18),2(6),4,14,16-pentaen-8-one] | 1.4 | 40 | 
[2H]C([2H])([2H])n1ncc2c1-c1ccnc(c1)[C@@H](N1CCC(c3c(OC(F)F)ccc(Cl)c3F)=CC1=O)CCC[C@@H](C)C(=O)N2 [Example 30, (9R,13S)-13-{4-[3-chloro-6-(difluoromethoxy)-2-fluorophenyl]-6-oxo-1,2,3,6-tetrahydropyridin-1-yl}-3-(^2H3)methyl-9-methyl-3,4,7,15-tetraazatricyclo[12.3.1.0^2,6]octadeca-1(18),2(6),4,14,16-pentaen-8-one] | 1 | 7 | 
C[C@@H]1CCC[C@H](n2ccc(-c3c(Cl)ccc(Cl)c3F)cc2=O)c2cc(ccn2)-c2c(cnn2C)NC1=O [Example 44, (9R,13S)-13-[4-(3,6-dichloro-2-fluorophenyl)-2-oxo-1,2-dihydropyridin-1-yl]-3,9-dimethyl-3,4,7,15-tetraazatricyclo[12.3.1.0^2,6]octadeca-1(18),2(6),4,14,16-pentaen-8-one] | 2.2 | 5.7 | 
CCn1ncc2c1-c1ccnc(c1)[C@@H](N1CCC(c3c(F)ccc(Cl)c3F)=CC1=O)CCC[C@@H](C)C(=O)N2 [Example 10, (9R,13S)-13-[4-(3-chloro-2,6-difluorophenyl)-6-oxo-1,2,3,6-tetrahydropyridin-1-yl]-3-ethyl-9-methyl-3,4,7,15-tetraazatricyclo[12.3.1.0^2,6]octadeca-1(18),2(6),4,14,16-pentaen-8-one] | 14 | 50 | 
C[C@@H]1CCC[C@H](N2CCC(c3cc(Cl)ccc3C#N)=CC2=O)c2cc(ccn2)-c2c(cnn2C(F)F)NC1=O [Example 19, 4-chloro-2-{1-[(9R,13S)-3-(difluoromethyl)-9-methyl-8-oxo-3,4,7,15-tetraazatricyclo[12.3.1.0^2,6]octadeca-1(18),2(6),4,14,16-pentaen-13-yl]-6-oxo-1,2,3,6-tetrahydropyridin-4-yl}benzonitrile] | 1.4 | 10 | 
C[C@@H]1CCC[C@H](N2CCC(c3cc(Cl)ccc3-n3cc(Cl)nn3)=CC2=O)c2cc(ccn2)-c2c(cnn2CCOC(C)(C)C)NC1=O [Example 34, (9R,13S)-3-[2-(tert-butoxy)ethyl]-13-{4-[5-chloro-2-(4-chloro-1H-1,2,3-triazol-1-yl)phenyl]-6-oxo-1,2,3,6-tetrahydropyridin-1-yl}-9-methyl-3,4,7,15-tetraazatricyclo[12.3.1.0^2,6]octadeca-1(18),2(6),4,14,16-pentaen-8-one] | 1.1 | 50 | 

Source: patent US10273236B2, “Macrocyclic factor XIa inhibitors bearing heterocyclic groups” (Bristol-Myers Squibb Company, priority 2014, dated 2019)
